Assay: Storage/thermal stability of the solid form
Type: physicochemical
Conditions: stable for any period of time, no test described

Row | SMILES | temperature below which the solid is stable
1 | CN(C)[C@@H](CCOc1cccc2ccccc12)c1ccccc1 (racemic) [solid racemic dapoxetine] | below 45 °C
2 | CN(C)[C@@H](CCOc1cccc2ccccc12)c1ccccc1 (single isomer, unassigned) [solid dapoxetine S enantiomer] | below 60 °C
